Test results taken from patent US4119667A, “Haloaniline derivatives as plant growth modifiers” (Rohm and Haas Company, priority 1974, dated 1978).
Structures can show the parent of a compound that is named as a salt. Where two headings read alike, the source gives them in different places.

System: soybean (Var. Clark)
Experiment: greenhouse growth regulator test on soybean (Table I)
Format: in vivo
Conditions: two weeks after application; for Injury (0-10): 0-10 scale, 0 = no effect, 10 = complete kill; for pest or weed control / pest or weed control at 2241.7 g/ha: Glycine max, foliar, 336 h, read-out: Height (% inhib.); for pest or weed control / pest or weed control at 2241.7 g/ha / Height (% inhib.): relative to control
Description: Limited greenhouse experiments shown that there is promotion of lateral bud growth when compounds are applied at higher concentrations and earlier timings and an increase in soybean pod numbers at lower rates applied just prior to or at the flowering stage. […] Three parameters are reported in Table I to indicate the general spectrum of activity for each evaluated compound including the propensity for releasing lateral bud growth in soybeans. These are: (a) plant height measured as percent inhibition relative to the control; (b) the number of lateral buds per plant; and (c) phytotoxic injury on a scale of 0 to 10 (10 being maximum injury). Sampling compounds were evaluated in the greenhouse in a special growth regulator test. Four to five soybean seeds (Var. Clark) were planted in 4-inch pots with a humus-soil mixture. Two weeks after planting, two uniform plants were selected from each pot for treatment. The candidate compounds were dissolved in acetone-water (1:1), and applied as a foliar spray in a carrier volume of 50 gallons per acre, using a moving belt sprayer at a rate of 1/4, 1/2 and 2 lbs/acre. Six plants were used for each treatment. Two weeks after application, the number of laterals per plant, plant injury (0-10 scale; 0 = no effect, 10 = complete kill,) and the height of each plant were recorded. Untreated plants were used as controls.

Row | SMILES | No. Laterals per plant (1/2 lbs/acre foliar spray) | Injury (0-10) (1/2 lbs/acre) | No. Laterals per plant (1/4 lbs/acre foliar spray) | Injury (0-10) (1/4 lbs/acre) | No. Laterals per plant (2 lbs/acre foliar spray) | Injury (0-10) (2 lbs/acre) | pest or weed control (1/2 lbs/acre foliar spray) [%] | pest or weed control (1/4 lbs/acre foliar spray) [%] | pest or weed control at 2241.7 g/ha (2 lbs/acre foliar spray) [%] | Height (% inhib.) (2 lbs/acre foliar spray) | Height (% inhib.) (1/2 lbs/acre foliar spray) | Height (% inhib.) (1/4 lbs/acre foliar spray) | Height (% inhib.) (1/2 lbs/acre foliar spray, HCl) | No. Laterals per plant (1/2 lbs/acre foliar spray, HCl) | Injury (0-10) (1/2 lbs/acre, HCl) | Height (% inhib.) (1/4 lbs/acre foliar spray, HCl) | No. Laterals per plant (1/4 lbs/acre foliar spray, HCl) | Injury (0-10) (1/4 lbs/acre, HCl) | Height (% inhib.) (2 lbs/acre foliar spray, HCl) | No. Laterals per plant (2 lbs/acre foliar spray, HCl)
1 | Clc1ccc(NCNc2ccc(Cl)c(Cl)c2)cc1Cl [II, n,n'-bis[3,4-dichlorophenyl]methanediamine] | 0 | 2 | 2 | 3 | 5 | 2 | 15 | 20 | 7 |  |  |  |  |  |  |  |  |  |  | 
2 | Brc1cc(Br)cc(NCNc2cc(Br)cc(Br)c2)c1 [III, n,n'-bis[3,5-dibromophenyl]methanediamine] | 0 | 1 | 0 | 1 | 3 | 1 | 2 | 0 | 0 |  |  |  |  |  |  |  |  |  |  | 
3 | Clc1ccc(N=Cc2ccccc2Cl)cc1Cl [IX, 3,4-dichloro-N-(2-chlorobenzylidene)aniline] | 4 | 0 | 0 | 0 | 4 | 2 | 23 | 0 | 12 |  |  |  |  |  |  |  |  |  |  | 
4 | Clc1cc(Cl)cc(N=Cc2ccccc2Cl)c1 [V, 3,5-dichloro-N-(2-chlorobenzylidine)aniline] | 3 | 0 | 2 | 0 | 5 | 0 | 8 | 1 | 13 |  |  |  |  |  |  |  |  |  |  | 
5 | Clc1cccc(C=Nc2cc(Cl)cc(Cl)c2)c1 [VI, 3,5-dichloro-N-(3-chlorobenzylidene)aniline] | 3 | 1 | 2 | 2 | 5 | 1 | 21 |  | 13 |  |  |  |  |  |  |  |  |  |  | 
6 | Clc1ccc(C=Nc2cc(Cl)cc(Cl)c2)cc1 [VII, 3,5-dichloro-N-(4-chlorobenzylidene)aniline] | 4 | 0 | 2 | 0 | 5 | 0 | 9 |  | 13 |  |  |  |  |  |  |  |  |  |  | 
7 | Clc1cc(Cl)cc(N=Cc2c(Cl)cccc2Cl)c1 [VIII, 3,5-dichloro-N-(2,6-dichlorobenzylidene)aniline] | 2 | 0 | 0 | 0 | 5 | 0 | 7 | 1 | 15 |  |  |  |  |  |  |  |  |  |  | 
8 | Clc1cccc(C=Nc2ccc(Cl)c(Cl)c2)c1 [X, 3,4-dichloro-N-(3-chlorobenzylidene)aniline] | 3 | 1 | 1 | 0 | 3 | 3 | 14 | 9 | 13 |  |  |  |  |  |  |  |  |  |  | 
9 | Clc1ccc(C=Nc2ccc(Cl)c(Cl)c2)cc1 [XI, 3,4-dichloro-N-(4-chlorobenzylidene)aniline] | 5 | 1 | 1 | 0 | 4 | 3 | 25 | 4 | 14 |  |  |  |  |  |  |  |  |  |  | 
10 | Clc1ccc(N=Cc2c(Cl)cccc2Cl)cc1Cl [XII, 3,4-dichloro-N-(2,6-dichlorobenzylidene)aniline] | 2 | 1 | 1 | 1 | 6 | 1 |  | 5 | 18 |  |  |  |  |  |  |  |  |  |  | 
11 | Clc1cc(Cl)cc(N=CNc2cc(Cl)cc(Cl)c2)c1 [XIV, N,N'-Bis[3,5-dichlorophenyl]formamidine] | 3 | 3 | 1 | 2 | 4 | 0 | 11 | 13 |  | 4 |  |  |  |  |  |  |  |  |  | 
12 | O=CNc1ccc(Cl)c(Cl)c1 [XIX, 3',4'-dichloroformanilide] | 0 | 0 | 5 | 1 | 4 | 3 | 0 | 2 | 13 |  |  |  |  |  |  |  |  |  |  | 
13 | Clc1ccc(N=CNc2ccc(Cl)c(Cl)c2)cc1Cl [XV, n,n'-bis[3,4-dichlorophenyl]formamidine] | 2 | 2 | 2 | 2 | 2 | 1 |  |  |  | 4 | 15 | 23 |  |  |  |  |  |  |  | 
14 | CCOC=Nc1cc(Cl)cc(Cl)c1 [XVI, Ethyl N-(3,5-dichlorophenyl)formimidate] | 4 | 1 | 2 | 1 | 5 | 2 | 2 | 0 | 22 |  |  |  |  |  |  |  |  |  |  | 
15 | CCOC=Nc1ccc(Cl)c(Cl)c1 [XVII, ethyl N-(3,4-dichlorophenyl)formimidate] | 0 | 1 | 2 | 2 | 4 | 6 |  | 24 | 34 |  |  |  |  |  |  |  |  |  |  | 
16 | Cl.Clc1cc(Cl)cc(N=CNc2cc(Cl)cc(Cl)c2)c1 [XX, N,N'-Bis[3,5-dichlorophenyl]formamidine hydrochloride] | 4 | 2 | 2 | 2 | 6 | 0 |  |  |  | 44 | 19 | 10 |  |  |  |  |  |  |  | 
17 | Clc1ccc(N=CNc2ccc(Cl)c(Cl)c2)cc1Cl [XXI, n,n'-bis[3,4-dichlorophenyl]formamidine HCl] |  |  |  |  |  |  |  |  |  |  |  |  | 4 | 4 | 1 | 0 | 1 | 0 | 20 | 5
18 | CCOC(CC)=Nc1cc(Cl)cc(Cl)c1 [XXII, Ethyl N-(3,5-dichlorophenyl)propionimidate] | 3 | 1 | 1 | 2 | 3 | 1 |  |  |  |  |  |  |  |  |  |  |  |  |  | 
